US11331301B2, “Compositions and methods for treating cancer” (The State of Israel, Ministry of Agriculture & Rural …, priority 2017, dated 2022)

Tests used:
Assay type in all cases: cell-based
HCT116 cells = assay: Cytotoxic activity with CB1, CB2 and GPR55 receptor antagonists, Alamar Blue; conditions: THCA 0.12 mM
Procedure: FIGS. 12A-C depict the determination of HCT116 cell viability using Alamar Blue fluorescence (Resazurin assay) as a function of cytotoxic effect. HCT116 cells were seeded (50,000 per well) in triplicate in 500 μL growing media and incubated for 24 h at 37° C. in a humidified 5% CO2-95% air atmosphere. […] Non-treated are the cells without TNF-α and treatments. Relative fluorescence at the excitation/emission of 544/590 nm was measured. Values were calculated as percentage of live cells relative to the non-treated (cells without TNF-α and treatments) control after reducing the autofluorescence of Alamar Blue without cells.
FIG. 12D depicts determination of HCT116 cell viability using Alamar Blue fluorescence (resazurin assay) as a function of cytotoxic effect. HCT116 cells were seeded (50,000 per well) in triplicate in 500 μL growing media and incubated for 24 hours at 37° C. in a humidified 5% CO2-95% air atmosphere. […] Treatments with F7, F1-F9, and combination of fractions without antagonists served as a positive control (Con). Non-treated are the cells without TNF-α and treatments. […] Relative fluorescence at the excitation/emission of 544/590 nm was measured. Values were calculated as percentage of live cells relative to the non-treated (cells without TNF-α and treatments) control after reducing the autofluorescence of Alamar Blue without cells. […]

CB2 = assay: Relative gene expression by qPCR after TNF-α; conditions: HCT-116; overnight TNF-α; versus GAPDH, 2-ΔΔCT; treated versus non-treated cells
Source text: (§1) Transcripts for CB1, CB2 and GPR55 were detected by qPCR in HCT116 cells.

CB1 = assay: Relative gene expression by qPCR after TNF-α; conditions: HCT-116; overnight TNF-α; versus GAPDH, 2-ΔΔCT; treated versus non-treated cells
Source text: as §1

GPR55 = assay: Relative gene expression by qPCR after TNF-α; conditions: HCT-116; overnight TNF-α; versus GAPDH, 2-ΔΔCT; treated versus non-treated cells
Source text: as §1

Compound | effect of CB2 antagonist (SR144528) on cytotoxic activity (HCT116 cells; C2F 0.2 mg/mL, F7 0.08 mg/mL) | effect of CB1 antagonist (Rimonabant) on cytotoxic activity (HCT116 cells) | Mean relative expression of CB2 (CB2) | Mean relative expression of CB1 (CB1) | Mean relative expression of GPR55 (GPR55)
CCCCCc1cc2c(c(O)c1C(=O)O)[C@@H]1C=C(C)CC[C@H]1C(C)(C)O2 [THCA, tetrahydrocannabinolic acid] | significant reduction in cytotoxic activity | significant reduction in cell cytotoxic activities |  |  | 
TNF-α |  |  | 5.84 | 1.31 | 5.26
